Here are results for two molecules from patent EP2857399A1, “Compounds useful for the treatment of PDE5 inhibitor-poorly responsive erectile dysfunction” (GenKyoTex SA, priority 2013, dated 2015).

The test system of the assay is diabetic GK rats. Nature of the assay: Erectile response to electrical stimulation of the cavernous nerve (ICP monitoring) in a rat model of type II diabetes mellitus associated erectile dysfunction with impaired sildenafil response. It counts as in vivo, Goto-Kakizaki (GK) rats. The method, then: The efficacy of compounds of Formula (I) for restoring or increasing responsiveness to treatment with a PDE5 inhibitor (sildenafil) is assessed in a rat model of type II diabetes mellitus associated erectile dysfunction in Goto-Kakizaki (GK) rats. Those rats show the main features of the metabolic, hormonal and vascular disorders usually described in T2D patients (Portha et al., 2001, Diabetes 50 (Suppl. 1): S89-S93; Portha et al., 1991, Diabetes 40, 486-491).
Adult male Wistar and age-matched Goto-Kakizaki (GK) rats (obtained by repeated inbreeding of non-diabetic Wistar rats selected at the upper limit or normal distribution if glucose tolerance as described in Goto et al., 1975, Proc. Jpn Acad, 51, 80-5 are housed at least 7 days prior to the beginning of the experiments with free access to standard chow and water and maintained on an inversed 12 h dark/light cycle (10:00/22:00).
At 15 weeks of age, treatment period is started; n=24 GK rats (Groups 4 & 5) receive a dose of compound 5 (30 mg/kg) while n=24 GK (Groups 1 and 3) rats and n=12 Wistar (Group 2) rats receive an equivalent volume of vehicle (25% HPβCD) of compound 5 by daily oral gavage for 28 days.
On day 29th after starting treatment administration, the rats (19 weeks of age) undergo an evaluation of their erectile response measured after electrical stimulation (ES) of the cavernous nerve (CN) by monitoring intracavernous pressure (ICP). For this purpose, rats are anesthetized (urethane […]) after a 3-hour fasting period (necessary for plasma glucose dosage), their temperature maintained at 37°C using a homeothermic blanket. The carotid artery was catheterized to record blood pressure (BP) via a pressure transducer (Elcomatic 750, Glasgow, UK). Both jugular veins were also catheterised to allow intravenous injections. CN is surgically exposed at the lateral aspect of the prostate and mounted on a bipolar platinum electrode connected to an electrical stimulator (AMS 2100, Phymep, France).
As a consequence, there are 16 hours between animals receiving their final administration of compound 5 or vehicle and initiation of evaluation of their erectile function. Rats were anesthetized and then received a 1st intravenous injection (iv) 25%HPβCD, the vehicle of compound 5, 60 minutes prior to the evaluation period of treatment effect. All rats also received a 2nd iv injection of either sildenafil (Sequoia research, Pangbourne, UK) 0.3mg/kg (groups 3 & 5) or normal saline, the vehicle of sildenafil, (groups 1, 2, 4) 56 minutes after the first injection.
At T=-15 minutes, the continuous recording of BP and ICP started. […] Two stimulations of the CN at 15Hz, 1 ms for 45 s were performed to elicit an increase of ICP to certify the correct implantation of the catheter and to assess baseline erectile response prior treatment
At T=0 minute, 25% HPβCD was injected intravenously.
At T+4 minutes and T+30 minutes, the CN was stimulated at 10Hz, 1ms for 45s.At T+56 minutes, sildenafil (0.3mg/kg) or normal saline was intravenously injected.
At T+ 60 minutes, and at 3 minutes intervals thereafter, the CN was stimulated at 6V, 1 ms for 45 s by different stimulation frequencies (10 Hz then 0, 2.5, 5, 7.5, 12.5 and 15 Hz) in a randomized manner in order to assess the erectile responses. These different electrical stimulations were repeated twice in view of establishing a frequency-response curve for each animal.
At T+ 120 minutes, the recording ended. […]

On to `CN(C)c1cccc(-c2c3c(=O)n(-c4ccccc4Cl)[nH]c3cc(=O)n2C)c1` [compound 5, 2-(2-chlorophenyl)-4-[3-(dimethylamino)phenyl]-5-methyl-1H-pyrazolo[4,3-c] pyridine-3,6(2H,5H)-dione], for which, for the setting “acute sildenafil 0.3 mg/kg combined with chronic compound 5 30mg/kg/day, Figure 1B”, the “AUCtot/MAP following ES CN compared to control healthy Wistar rats” value is reported as “not significantly different”. For the same molecule, where the note is “chronic compound 5 30mg/kg/day combined with acute sildenafil iv 0.3mg/kg, p≤0.0001 vs. GK rats, 2-way ANOVA with interaction, figure 1B”, the “AUCtot/MAP (pro-erectile facilitator effects)” value is “further increased”. Further, the “AUC45/MAP (pro-erectile facilitator effects)” value (chronic compound 5 30mg/kg/day combined with acute sildenafil iv 0.3mg/kg, p≤0.0001 vs. GK rats, 2-way ANOVA, Figure 1A) is “further increased”. Moreover, the “erectile responses (AUC45/MAP) compared to healthy Wistar rats” value (chronic compound 5 alone at 30mg/kg/day, Figure 1A) is listed as “significantly lower”. In addition, the “increase in AUCtot/MAP compared to each compound administered alone” value (combination of chronic compound 5 30mg/kg/day and acute sildenafil 0.3mg/kg, p≤0.0001 vs acute sildenafil, p≤0.05 vs chronic compound 5, Figure 1B) is on record as “statistically significant”. The “AUCtot/MAP (erectile responses to ES CN)” value (compound 5 alone, 30mg/kg once daily oral for 4 weeks, compared to GK rats treated with vehicle, p=0.147, figure 1B) is recorded as “no statistical difference”. For the same molecule, for the setting “compound 5 alone, 30mg/kg once daily oral for 4 weeks, compared to GK rats treated with vehicle, p≤0.05, figure 1A”, the “AUC45/MAP (erectile responses to ES CN)” value is recorded as “statistically greater overall erectile responses”.
As for `CCCc1nn(C)c2c(=O)[nH]c(-c3cc(S(=O)(=O)N4CCN(C)CC4)ccc3OCC)nc12` [sildenafil, reference compound], under “acute sildenafil alone, iv single administration 0.3mg/kg, Figure 1A”, the “erectile responses (AUC45/MAP) compared to healthy Wistar rats” value is on record as “significantly lower”. In addition, the “erectile responses to ES CN” value (acute sildenafil alone, iv single administration at 0.3mg/kg) is “pro-erectile facilitator effects”.
